Test results taken from US12268672B2, “PPARδ activator” (JAPAN SCIENCE AND TECHNOLOGY AGENCY, priority 2018, dated 2025).
Counter-ions that a name gives are not always drawn.

Key:
[1] = tested on: angptl4, pdk4 and cpt1a genes; experiment: Quantitative PCR of genes whose expression is induced by PPARδ in C2C12 cells; format: cell-based, mouse; details: 10 μM compound (A-4), 16 hours, relative to Hprt, n=3
Experimental: The effect of compound (A-4) on the expression of the gene whose expression is induced by PPARδ was investigated. Specifically, compound (A-4) was added to mouse skeletal muscle-derived myoblast cell line C2C12 cells, and the expression levels of the angptl4, pdk4 and the cpt1a genes, whose expression is induced by PPARδ (NPL 12), were measured. In addition, the Hprt gene was used as an endogenous control, and GW0742 was used as a positive control for PPARδ activation.
First, C2C12 cells were seeded on a 24-well plate (1×10^5 cells/well) and cultured until 80-90% confluent. DMEM containing 10% bovine serum and 1% antibiotic was used as the culture medium. After culturing for 36 hours, when the target cell density was reached, the entire medium was replaced with a serum-free DMEM medium containing each concentration of compound (A-4), and the cells were cultured for 16 hours (n=3). After culturing, the medium was discarded, a trizol reagent (manufactured by Invitrogen) for RNA extraction was directly added to each well to lyse the cells, and then the total RNA was extracted by ethanol precipitation. Using the obtained total RNA as a template, cDNA was synthesized using the reverse transcriptase “Superscript” (manufactured by […]).
Quantitative PCR was performed using the obtained cDNA as a template. The cDNA of the template, the primer that amplifies each gene to be measured, and the polymerase mix “ssoFast EvaGreen Supermix” (manufactured by Biorad) for quantitative PCR were mixed. Analysis was performed using a real-time PCR detection system “CFX connect (registered trademark)” (manufactured by Biorad).
From the obtained gene expression data, the expression level of each gene was divided by the expression level of the endogenous control gene to calculate the relative expression level.

[2] = tested on: recruitment of PPARδ to PPRE; experiment: Chromatin immunoprecipitation of FLAG-PPARδ in differentiated C2C12-PPARδ cells; format: cell-based, mouse; details: 100 μM metformin or 1 μM GW501516, day 6 of differentiation, IgG control set as 1
Experimental: First, C2C12-PPARδ cells, in which FLAG-tagged PPARδ (FLAG-PPARδ) was constitutively over-expressed in C2C12 cells were prepared. […] The treated cells were subjected to chromatin immunoprecipitation (Conventional ChIP) using an antibody that recognizes the FLAG tag.

C2C12 cells = experiment: Oxygen consumption rate (OCR) of C2C12 cells, extracellular flux analyzer; format: cell-based, mouse; details: 100 μM metformin or 10 μM GW501516 for 24 hours; for OCR after FCCP addition: compared to DMSO-treated cells
Experimental: PPARδ is known to induce the expression of lipid metabolism-related genes and enhance β-oxidation of fatty acids, especially in skeletal muscle. The PPARδ agonist is expected to have an effect of increasing mitochondrial activity. […] Specifically, using C2C12 cells, the oxygen consumption rate (OCR: Oxygen Consumption Rate) of the cells was measured by a cell metabolism-measuring device (extracellular flux analyzer manufactured by Agilemt Technologies Inc.).
In this metabolic measurement, four inhibitors were used to force changes in intracellular metabolism (FIG. 14). First, oligomycin, which inhibits Complex V of the electron transport chain, was added. […] Next, the uncoupling agent FCCP (Carbonyl cyanide-p-trifluoromethoxyphenylhydrazone) was added. FCCP forcibly discharges hydrogen ions in the mitochondrial membrane to the outside of the membrane to eliminate the proton concentration gradient. Since a proton concentration gradient is required to produce ATP, the TCA cycle and electron transport chain are maximally activated when the gradient is forcibly eliminated by FCCP. This makes it possible to measure the maximum respiration rate of cells. It is known that OCR at this time is further increased in cells in which fatty acid oxidation is enhanced. Finally, rotenone and antimycin were added. Rotenone inhibits the electron transport chain complex I, and antimycin inhibits complex III.

CV1 cells = experiment: Cell death observed in the CV1 luciferase assay; format: cell-based; details: transcription activity impossible to measure
Experimental: Specifically, CV1 cells, which are cultured cells derived from African green monkey kidneys, were seeded on a 24-well plate (1×10^5 cells/well) and cultured until they became 70% confluent. DMEM containing 10% fetal bovine serum and 1% antibiotic was used as the culture medium. After reaching the desired cell density, the entire medium was removed, and a mixture obtained by mixing 2 μL of MH2004 (plasmid encoding a firefly luciferase gene having a Gal4 activation sequence upstream: 100 ng/μL), 1 μL of pRL-CMV (plasmid encoding the Renilla reniformis luciferase gene directly under the CMV promoter: 100 ng/μL), 2 μL of GAL4-Ppard (plasmid encoding Gal4-DNA binding region fused with PPARδ gene: 100 ng/μL) and 1.5 μL of PEI (polyethylenimine: manufactured by Invitrogen) with 45 μL culture medium “Opti-MEM” (registered trademark) (manufactured by Thermo Fisher Scientific) was added to each well, and the cells were cultured for about 36 hours.
The effect of the obtained compound (A-4) on PPARδ activity was investigated. Specifically, a luciferase assay was carried out in the same manner as in Example 8 except that compound (A-4) dissolved in DMSO (0.1%) was added to the reaction system as a test substance (n=3). […] However, when the addition amount was 50 μM or more, the cells died and it was impossible to measure the transcription activity of PPARδ.

PPARδ = experiment: Luciferase assay with GAL4-Ppard and MH2004 reporter in CV1 cells; format: cell-based; details: for Light emission intensity (RLU) Average: 10 μM of each compound in DMSO, 12 hours; for Relative emission intensity Average: 10 μM of each compound, DMSO control defined as 1, n=3
Experimental: Among the compounds (1-1-4), the effects of compound (B-1), compound (B-2), and compound (B-3) on the transcriptional regulation of PPARδ were investigated. The effects on the transcriptional activity of PPARδ were measured by performing a luciferase assay on the cells treated with 10 μM of each compound dissolved in DMSO. Specifically, CV1 cells, which are cultured cells derived from African green monkey kidneys, were seeded on a 24-well plate (1×10^5 cells/well) and cultured until they became 70% confluent. DMEM containing 10% fetal bovine serum and 1% antibiotic was used as the culture medium. […] Then, the collected cells were lysed in a cell lysis buffer, suspended with a luminescent substrate (firefly luciferin), and the luminescence of the suspension was measured with a luminometer. In addition, the remaining suspension was mixed with Renilla luciferin and the amount of luminescence was measured with a luminometer. The result of the amount of light emitted by Renilla luciferin was used as the intrinsic control of gene transfer. Finally, the amount of luminescence of firefly luciferin was calculated as a light emission intensity (RLU) by dividing by the amount of luminescence of Renilla luciferin. The relative emission intensity of the reaction solution treated with each compound was determined as the transcriptional activation ability of PPARδ in each compound treatment, where the light emission intensity of the reaction solution to which an equal amount of DMSO was added (control) was defined as 1. The relative emission intensities were all 1.1 or more in the reaction solutions to which the compounds were added, and the transcriptional activity of PPARδ was increased. […] The effect of the obtained compound (A-4) on PPARδ activity was investigated. […] However, when the addition amount was 50 μM or more, the cells died and it was impossible to measure the transcription activity of PPARδ.

human PPARδ = human PPARδ (Homo sapiens, UniProt Q03181); details: in the presence of PPARδ complex (hPPARδ, PGC1α, RXRα)
human PPARδ, sequence (Q03181 whole entry): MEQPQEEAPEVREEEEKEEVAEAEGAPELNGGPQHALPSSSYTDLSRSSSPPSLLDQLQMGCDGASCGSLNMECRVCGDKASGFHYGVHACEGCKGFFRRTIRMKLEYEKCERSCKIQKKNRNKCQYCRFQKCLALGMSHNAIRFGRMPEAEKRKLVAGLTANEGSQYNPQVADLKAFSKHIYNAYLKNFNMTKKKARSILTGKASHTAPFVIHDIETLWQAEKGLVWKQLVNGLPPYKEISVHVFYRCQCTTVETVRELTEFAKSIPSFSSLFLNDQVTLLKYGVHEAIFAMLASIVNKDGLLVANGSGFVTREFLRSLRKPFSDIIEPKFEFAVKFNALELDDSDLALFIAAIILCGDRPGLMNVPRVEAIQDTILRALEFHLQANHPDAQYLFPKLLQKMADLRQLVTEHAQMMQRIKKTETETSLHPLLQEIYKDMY
human PPARδ, sequence (P19793 whole entry partner): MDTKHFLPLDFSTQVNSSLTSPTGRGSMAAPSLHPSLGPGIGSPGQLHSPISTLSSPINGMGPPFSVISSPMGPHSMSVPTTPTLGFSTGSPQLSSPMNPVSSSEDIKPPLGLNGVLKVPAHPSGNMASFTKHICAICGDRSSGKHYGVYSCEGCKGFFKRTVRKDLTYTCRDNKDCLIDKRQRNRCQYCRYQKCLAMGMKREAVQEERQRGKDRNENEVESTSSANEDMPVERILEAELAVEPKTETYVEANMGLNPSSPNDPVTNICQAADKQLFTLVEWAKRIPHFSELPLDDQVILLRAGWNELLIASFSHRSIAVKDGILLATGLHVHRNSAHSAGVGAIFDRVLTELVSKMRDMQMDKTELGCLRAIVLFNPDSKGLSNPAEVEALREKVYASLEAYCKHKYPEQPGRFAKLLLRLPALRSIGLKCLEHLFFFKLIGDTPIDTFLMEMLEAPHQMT
human PPARδ, sequence (Q9UBK2 whole entry partner): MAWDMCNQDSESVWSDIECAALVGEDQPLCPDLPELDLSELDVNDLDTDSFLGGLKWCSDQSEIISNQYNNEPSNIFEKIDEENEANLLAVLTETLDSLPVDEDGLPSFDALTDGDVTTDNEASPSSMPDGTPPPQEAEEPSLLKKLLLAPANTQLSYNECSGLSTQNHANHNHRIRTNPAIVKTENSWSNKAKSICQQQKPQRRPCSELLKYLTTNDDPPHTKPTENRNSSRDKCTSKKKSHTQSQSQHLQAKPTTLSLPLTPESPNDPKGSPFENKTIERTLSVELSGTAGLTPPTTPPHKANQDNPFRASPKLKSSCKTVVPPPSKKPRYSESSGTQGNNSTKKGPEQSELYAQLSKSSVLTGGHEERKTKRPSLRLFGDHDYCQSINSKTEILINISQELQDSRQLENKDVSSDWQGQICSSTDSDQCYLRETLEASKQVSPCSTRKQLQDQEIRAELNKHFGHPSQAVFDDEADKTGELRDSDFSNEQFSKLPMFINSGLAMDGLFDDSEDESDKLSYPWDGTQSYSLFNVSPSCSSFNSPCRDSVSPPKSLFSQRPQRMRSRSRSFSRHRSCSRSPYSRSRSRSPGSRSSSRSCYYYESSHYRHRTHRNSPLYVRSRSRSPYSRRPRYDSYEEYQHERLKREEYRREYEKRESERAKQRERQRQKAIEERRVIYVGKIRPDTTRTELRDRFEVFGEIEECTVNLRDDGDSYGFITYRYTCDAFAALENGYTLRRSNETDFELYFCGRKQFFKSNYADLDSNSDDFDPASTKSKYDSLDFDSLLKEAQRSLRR

endogenous PPARα = biological target: T1, endogenous PPARα (Homo sapiens, UniProt Q07869); experiment: Affinity purification using Met-beads and HepG2 cell extract, binding to PPARα; details: HepG2 cell extract
T1 construct: endogenous in cells; host or cells: HepG2
T1 sequence (Q07869 1-468): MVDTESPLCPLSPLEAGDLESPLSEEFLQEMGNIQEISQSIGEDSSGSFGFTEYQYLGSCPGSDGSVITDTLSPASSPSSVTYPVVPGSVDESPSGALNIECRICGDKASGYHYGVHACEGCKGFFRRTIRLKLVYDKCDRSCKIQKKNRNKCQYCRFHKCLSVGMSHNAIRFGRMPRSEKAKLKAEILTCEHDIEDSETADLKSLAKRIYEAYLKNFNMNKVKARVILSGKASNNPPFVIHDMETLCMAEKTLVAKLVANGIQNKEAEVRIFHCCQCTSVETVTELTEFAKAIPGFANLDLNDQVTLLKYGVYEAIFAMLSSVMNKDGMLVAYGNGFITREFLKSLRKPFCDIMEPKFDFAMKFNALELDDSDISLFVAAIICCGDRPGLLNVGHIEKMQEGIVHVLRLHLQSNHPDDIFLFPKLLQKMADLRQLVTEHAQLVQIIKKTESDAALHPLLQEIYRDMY
Experimental: […] is a member of the nuclear receptor superfamily, with PPARα and […] as the other two family members. Affinity purification was performed using the Met-beads and HepG2 cell extract to verify the binding to endogenous PPARα.

C57BL/6 mice = experiment: Final exercise tolerance test on treadmill (NOS50); format: in vivo; details: 25 mg/kg intraperitoneal
Experimental: For the metformin-non-administered group, an equal volume of PBS was intraperitoneally administered instead of the metformin/PBS solution.
The training for the final exercise tolerance test, in which the speed at start was 15 m/min and increased by 1 m/min every 10 minutes, and the running time after the speed reached 20 m/min was 10 minutes (1 hour in total), was performed 5 times a week for a total of 4 weeks using a treadmill device.
First, twenty 10-week-old male C57BL/6 mice were divided into 4 groups (5 mice per group). […] In addition, in order to average the motivation for exercise and exercise preference of individual mice in each group, the first exercise tolerance test was performed after training acclimatization to rank the mice, and the mice were divided into 4 groups so that the test results were even. Furthermore, in the test after the training period, the exercise tolerance was evaluated in such a manner that the running time was set as the time until the number of electrode contacts during the test reached 50 (number of shocks: NOS50), the speed at the start was set as 15 m/min and increased by 1 m/min every 10 minutes, and when the speed reached the maximum speed of 30 m/min, the running at the maximum speed was performed until NOS50 was reached.

endogenous AMPK = experiment: Affinity purification using Met-beads and HepG2 cell extract, binding to AMPK; set-up: species or system human; details: HepG2 cell extract

| SMILES | expression level of the angptl4 gene [1] | expression level of the cpt1a gene [1] | expression level of the pdk4 gene [1] | base OCR before the inhibitor treatment (C2C12 cells) | OCR after FCCP addition (C2C12 cells) | Light emission intensity (RLU) Average (PPARδ; n=3) | Relative emission intensity Average (PPARδ) | further results |
| --- | --- | --- | --- | --- | --- | --- | --- | --- |
| Cc1cc(SCc2sc(-c3ccc(C(F)(F)F)c(F)c3)nc2C)ccc1OCC(=O)O [GW0742] | increased | increased | increased |  |  |  |  |  |
| Cc1cc(SCc2sc(-c3ccc(C(F)(F)F)cc3)nc2C)ccc1OCC(=O)O [GW501516] |  |  |  | did not change | increase in OCR |  |  | recruitment of PPARδ in the vicinity of PPRE on promoters of Angptl4, Pdk4, Plin2 and Ucp3 genes [2]: recruited |
| Cc1cc(SCc2sc(-c3ccc(C(F)(F)F)c(F)c3)nc2C)ccc1CNC(=N)N [compound (A-4), 1-{4-[({2-[3-fluoro-4-(trifluoromethyl)phenyl]4-methylthiazole-5-yl}methyl)thio]-2-methylbenzyl}guanidine] | increased | increased | increased |  |  |  |  | addition amount at which the cells died (CV1 cells): ≥ 50 µM; transcriptional activity of PPARδ (relative transcriptional activation ability) (PPARδ; depending on the amount added, DMSO (0.1%), n=3): tended to increase |
| N=C(N)NCc1ccc(COCc2ccccc2)cc1 [compound (B-1), N-({4-[(benzyloxy)methyl]phenyl}methyl) guanidine hydrobromide] |  |  |  |  |  | 250467 | 1.12 |  |
| COc1cc(CNC(=N)N)ccc1OCc1ccccc1 [compound (B-3)] |  |  |  |  |  | 457033 | 2.04 |  |
| CN(C)C(=N)N=C(N)N [metformin] |  |  |  | did not change | increase in OCR |  |  | activation ability compared with GW501516 (human PPARδ): about the same as that of GW501516; binding between metformin and PPARα (endogenous PPARα): not detected; exercise tolerance, metformin administration without training (C57BL/6 mice; 4 weeks, compared with control group): did not show an improvement in exercise tolerance; exercise tolerance, training + metformin administration (C57BL/6 mice; training 5 times a week for 4 weeks, compared with training group): higher exercise tolerance than the training group; binding between metformin and AMPK (endogenous AMPK): not detected |
